From patent publication US20200024278A1, “COMPOSITION COMPRISING ANTIBIOTIC COMPOUND AND AN HETEROCYCLIC COMPOUND AND THEIR USE IN PREVENTING OR TREATING BACTERIAL INFECTIONS” (MUTABILIS, priority 2016, published 2020)

Assays:
Test in all cases: MIC, broth microdilution (CLSI), substance alone or ATB combined with compound at 4 or 8 μg/mL
[1] = system: PAE 105250; format: cell-based, P. aeruginosa; conditions: PAE 105250; for MIC ATB combined with Example: Example @8 μg/ml; for MIC ATB combined with Example compound: compound @8 μg/ml
Procedure, shortened: (§1)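 Growth inhibition endpoint, read visually after 16-20 h at 35° C in ambient air. Cation-adjusted Mueller-Hinton broth, inoculum 5·10^5 CFU/mL, CLSI M7-A7 protocol.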

[2] = system: PAE UFR90; format: cell-based, P. aeruginosa; conditions: PAE UFR90; for MIC ATB combined with Example: Example @8 μg/ml; for MIC ATB combined with Example compound: compound @8 μg/ml
Procedure, shortened: as §1

[3] = system: PAE UFR48; format: cell-based, P. aeruginosa; conditions: PAE UFR48; for MIC ATB combined with Example: Example @8 μg/ml; for MIC ATB combined with Example compound: compound @8 μg/ml
Procedure, shortened: as §1

[4] = system: SAU 29213; format: cell-based, S. aureus; conditions: for MIC ATB combined with Example / MIC ATB combined with Example compound: SAU 29213; for MIC ATB combined with Example: Example @8 μg/ml; for MIC ATB combined with Example compound: compound @8 μg/ml
Procedure, shortened: as §1

[5] = system: KPN UFR42; format: cell-based, K. pneumoniae; conditions: for MIC ATB combined with Example / MIC ATB combined with Example compound: KPN UFR42; for MIC ATB combined with Example: Example @8 μg/ml; for MIC ATB combined with Example compound: compound @8 μg/ml
Procedure, shortened: as §1

[6] = system: KPN BAA-1898; format: cell-based, K. pneumoniae; conditions: for MIC ATB combined with Example: Example @8 μg/ml
Procedure, shortened: as §1

[7] = system: KPN 6299; format: cell-based, K. pneumoniae; conditions: for MIC ATB combined with Example: Example @8 μg/ml
Procedure, shortened: as §1

[8] = system: SPN 49619; format: cell-based, S. pneumoniae; conditions: for MIC ATB combined with Example / MIC ATB combined with Example compound: SPN 49619; for MIC ATB combined with Example: Example @8 μg/ml; for MIC ATB combined with Example compound: compound @8 μg/ml
Procedure, shortened: as §1

[9] = system: ECL P99; format: cell-based, E. cloacae; conditions: for MIC ATB combined with Example: Example @8 μg/ml
Procedure, shortened: as §1

[10] = system: ECO UFR39; format: cell-based, E. coli; conditions: for MIC ATB combined with Example / MIC ATB combined with Example compound: ECO UFR39; for MIC ATB combined with Example: Example @8 μg/ml; for MIC ATB combined with Example compound: compound @8 μg/ml
Procedure, shortened: as §1

[11] = system: ECO 190317; format: cell-based, E. coli; conditions: for MIC ATB combined with Example: Example @8 μg/ml
Procedure, shortened: as §1

O=C1N2CC(n3cccn3)=CC(C2)N1OC(F)(F)C(=O)[O-].[Li+] (stereo not shown) [Example 13, lithium difluoro-(7-oxo-3-pyrazol-1-yl-1,6-diaza-bicyclo[3.2.1]oct-3-en-6-yloxy)-acetate]
MIC ATB combined with Example ([1]; ATB ATM): 8 µg/mL
MIC ATB combined with Example ([1]; ATB FEP): 8 µg/mL
MIC ATB combined with Example ([1]; ATB FOS): >128 µg/mL
MIC ATB combined with Example ([1]; ATB MEM): 2 µg/mL
MIC ATB combined with Example ([1]; ATB PIP): 32 µg/mL
MIC ATB combined with Example compound ([1]; MIC of CIP): 0.063 µg/mL
MIC ATB combined with Example compound ([1]; MIC of CPO): 16 µg/mL
MIC ATB combined with Example ([2]; ATB ATM): 16 µg/mL
MIC ATB combined with Example ([2]; ATB FEP): 8 µg/mL
MIC ATB combined with Example ([2]; ATB FOS): 8 µg/mL
MIC ATB combined with Example ([2]; ATB MEM): 2 µg/mL
MIC ATB combined with Example ([2]; ATB PIP): >32 µg/mL
MIC ATB combined with Example compound ([2]; MIC of CIP): 1 µg/mL
MIC ATB combined with Example compound ([2]; MIC of CPO): 16 µg/mL
MIC ATB combined with Example ([3]; ATB ATM): 8 µg/mL
MIC ATB combined with Example ([3]; ATB FEP): 32 µg/mL
MIC ATB combined with Example ([3]; ATB FOS): 16 µg/mL
MIC ATB combined with Example ([3]; ATB MEM): 0.5 µg/mL
MIC ATB combined with Example ([3]; ATB PIP): 32 µg/mL
MIC ATB combined with Example compound ([3]; MIC of CIP): 4 µg/mL
MIC ATB combined with Example compound ([3]; MIC of CPO): >32 µg/mL
MIC ATB combined with Example ([4]; ATB ATM): >32 µg/mL
MIC ATB combined with Example ([4]; ATB FEP): 2 µg/mL
MIC ATB combined with Example ([4]; ATB FOS): 0.5 µg/mL
MIC ATB combined with Example ([4]; ATB MEM): <=0.031 μg/mL
MIC ATB combined with Example ([4]; ATB PIP): 1 µg/mL
MIC ATB combined with Example compound ([4]; MIC of CIP): 0.25 µg/mL
MIC ATB combined with Example compound ([4]; MIC of CLI): 0.063 µg/mL
MIC ATB combined with Example compound ([4]; MIC of CPO): 0.5 µg/mL
MIC ATB combined with Example compound ([4]; MIC of DAP): 1 µg/mL
MIC ATB combined with Example compound ([4]; MIC of ERY): 0.125 µg/mL
MIC ATB combined with Example compound ([4]; MIC of LZD): 1 µg/mL
MIC ATB combined with Example compound ([4]; MIC of RIF): 0.0078 µg/mL
MIC ATB combined with Example compound ([4]; MIC of SYN): 0.25 µg/mL
MIC ATB combined with Example compound ([4]; MIC of VAN): 1 µg/mL
MIC ([4]; Staphylococcus aureus, MSSA): 32 µg/mL
MIC ATB combined with Example ([5]; ATB ATM): 0.125 µg/mL
MIC ATB combined with Example ([5]; ATB FEP): <=0.031 μg/mL
MIC ATB combined with Example ([5]; ATB FOS): 4 µg/mL
MIC ATB combined with Example ([5]; ATB MEM): >32 µg/mL
MIC ATB combined with Example ([5]; ATB PIP): >32 µg/mL
MIC ([5]; Klebsiella pneumoniae): 16 µg/mL
MIC ATB combined with Example compound ([5]; MIC of CIP): >32 µg/mL
MIC ATB combined with Example compound ([5]; MIC of CPO): 32 µg/mL
MIC ATB combined with Example ([6]; ATB ATM, KPN BAA-1898): 4 µg/mL
MIC ATB combined with Example ([6]; ATB FEP, KPN BAA-1898): 0.25 µg/mL
MIC ATB combined with Example ([6]; ATB FOS, KPN BAA-1898): 4 µg/mL
MIC ATB combined with Example ([6]; ATB MEM, KPN BAA-1898): 0.25 µg/mL
MIC ATB combined with Example ([6]; ATB PIP, KPN BAA-1898): 32 µg/mL
MIC ([6]; Klebsiella pneumoniae, BAA1898): 16 µg/mL
MIC ATB combined with Example compound ([6]; MIC of CIP, compound @8 μg/ml, KPN BAA-1898): 16 µg/mL
MIC ATB combined with Example ([7]; ATB ATM): <=0.031 μg/mL
MIC ATB combined with Example ([7]; ATB FEP): 0.063 µg/mL
MIC ATB combined with Example ([7]; ATB FOS): 8 µg/mL
MIC ATB combined with Example ([7]; ATB MEM): <=0.031 μg/mL
MIC ATB combined with Example ([7]; ATB PIP): 0.5 µg/mL
MIC ATB combined with Example compound ([7]; MIC of CIP, compound @8 μg/ml): 32 µg/mL
MIC ATB combined with Example ([8]; ATB ATM): >32 µg/mL
MIC ATB combined with Example ([8]; ATB FEP): 0.063 µg/mL
MIC ATB combined with Example ([8]; ATB FOS): 32 µg/mL
MIC ATB combined with Example ([8]; ATB MEM): <=0.031 μg/mL
MIC ATB combined with Example ([8]; ATB PIP): 0.5 µg/mL
MIC ATB combined with Example compound ([8]; MIC of CIP): 0.5 µg/mL
MIC ATB combined with Example compound ([8]; MIC of CLI): 0.063 µg/mL
MIC ATB combined with Example compound ([8]; MIC of CPO): <=0.031 μg/mL
MIC ATB combined with Example compound ([8]; MIC of DAP): 0.5 µg/mL
MIC ATB combined with Example compound ([8]; MIC of ERY): 0.063 µg/mL
MIC ATB combined with Example compound ([8]; MIC of LZD): 1 µg/mL
MIC ATB combined with Example compound ([8]; MIC of RIF): 0.0078 µg/mL
MIC ATB combined with Example compound ([8]; MIC of SYN): 0.5 µg/mL
MIC ATB combined with Example compound ([8]; MIC of VAN): 0.25 µg/mL
MIC ([8]; Streptococcus pneumoniae): > 32 µg/mL
MIC ATB combined with Example ([9]; ATB ATM, ECL P99): 2 µg/mL
MIC ATB combined with Example ([9]; ATB FEP, ECL P99): <=0.031 μg/mL
MIC ATB combined with Example ([9]; ATB FOS, ECL P99): 32 µg/mL
MIC ATB combined with Example ([9]; ATB MEM, ECL P99): <=0.031 μg/mL
MIC ATB combined with Example ([9]; ATB PIP, ECL P99): 4 µg/mL
MIC ([9]; Enterobacter cloacae): 16 µg/mL
MIC ATB combined with Example compound ([9]; MIC of CIP, compound @8 μg/ml, ECL P99): <=0.031 μg/mL
MIC ATB combined with Example ([10]; ATB ATM): <0.031 µg/mL
MIC ATB combined with Example ([10]; ATB FEP): <0.031 µg/mL
MIC ATB combined with Example ([10]; ATB FOS): <0.125 µg/mL
MIC ATB combined with Example ([10]; ATB MEM): <=0.031 μg/mL
MIC ATB combined with Example ([10]; ATB PIP): <0.031 µg/mL
MIC ([10]; Escherichia coli): 8 µg/mL
MIC ATB combined with Example compound ([10]; MIC of CIP): <0.031 µg/mL
MIC ATB combined with Example compound ([10]; MIC of CPO): <0.031 µg/mL
MIC ATB combined with Example ([11]; ATB ATM, ECO 190317): <0.031 µg/mL
MIC ATB combined with Example ([11]; ATB FEP, ECO 190317): <0.031 µg/mL
MIC ATB combined with Example ([11]; ATB FOS, ECO 190317): <0.125 µg/mL
MIC ATB combined with Example ([11]; ATB MEM, ECO 190317): <0.031 µg/mL
MIC ATB combined with Example ([11]; ATB PIP, ECO 190317): <0.031 µg/mL
MIC ([11]; Escherichia coli): 4 µg/mL
MIC ATB combined with Example compound ([11]; MIC of CIP, compound @8 μg/ml, ECO 190317): <0.031 µg/mL
